Measured values taken from PubChem BioAssay (NCI).
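Where inhibition never reached the appropriate level, the endpoint shown equals the highest concentration tested. Otherwise, values were interpolated linearly from a five-concentration, 48-hour dose response in 96-well plates. TGI marks complete inhibition of growth.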

What was measured:
Experiment in all cases: DTP human tumour cell line panel, 48 h
786-0 renal = tested on: 786-0 renal
A498 renal = tested on: A498 renal
A549 NSCLC = tested on: A549 NSCLC
ACHN renal = tested on: ACHN renal
BT-549 breast = tested on: BT-549 breast
CAKI-1 renal = tested on: CAKI-1 renal
CCRF-CEM leukemia = tested on: CCRF-CEM leukemia
COLO 205 colon = tested on: COLO 205 colon
DU-145 prostate = tested on: DU-145 prostate
EKVX NSCLC = tested on: EKVX NSCLC
HCC-2998 colon = tested on: HCC-2998 colon
HCT-116 colon = tested on: HCT-116 colon
HCT-15 colon = tested on: HCT-15 colon
HL-60(TB) leukemia = tested on: HL-60(TB) leukemia
HOP-62 NSCLC = tested on: HOP-62 NSCLC
HOP-92 NSCLC = tested on: HOP-92 NSCLC
HS 578T breast = tested on: HS 578T breast
HT29 colon = tested on: HT29 colon
IGROV1 ovarian = tested on: IGROV1 ovarian
K-562 leukemia = tested on: K-562 leukemia
KM12 colon = tested on: KM12 colon
LOX IMVI melanoma = tested on: LOX IMVI melanoma
M14 melanoma = tested on: M14 melanoma
MALME-3M melanoma = tested on: MALME-3M melanoma
MCF7 breast = tested on: MCF7 breast
MDA-MB-231 breast = tested on: MDA-MB-231 breast
MDA-MB-435 = tested on: MDA-MB-435
MDA-N = tested on: MDA-N
MOLT-4 leukemia = tested on: MOLT-4 leukemia
NCI-H226 lung = tested on: NCI-H226 lung
NCI-H23 lung = tested on: NCI-H23 lung
NCI-H460 lung = tested on: NCI-H460 lung
NCI-H522 lung = tested on: NCI-H522 lung
NCI/ADR-RES ovarian = tested on: NCI/ADR-RES ovarian
OVCAR-3 ovarian = tested on: OVCAR-3 ovarian
OVCAR-4 ovarian = tested on: OVCAR-4 ovarian
OVCAR-5 ovarian = tested on: OVCAR-5 ovarian
OVCAR-8 ovarian = tested on: OVCAR-8 ovarian
PC-3 prostate = tested on: PC-3 prostate
RPMI-8226 leukemia = tested on: RPMI-8226 leukemia
RXF 393 renal = tested on: RXF 393 renal
SF-268 CNS = tested on: SF-268 CNS
SF-295 CNS = tested on: SF-295 CNS
SF-539 CNS = tested on: SF-539 CNS
SK-MEL-2 melanoma = tested on: SK-MEL-2 melanoma
SK-MEL-28 melanoma = tested on: SK-MEL-28 melanoma
SK-MEL-5 melanoma = tested on: SK-MEL-5 melanoma
SK-OV-3 ovarian = tested on: SK-OV-3 ovarian
SN12C renal = tested on: SN12C renal
SNB-19 CNS = tested on: SNB-19 CNS
SNB-75 CNS = tested on: SNB-75 CNS
SR leukemia = tested on: SR leukemia
SW-620 colon = tested on: SW-620 colon
T-47D breast = tested on: T-47D breast
TK-10 renal = tested on: TK-10 renal
U251 CNS = tested on: U251 CNS
UACC-257 melanoma = tested on: UACC-257 melanoma
UACC-62 melanoma = tested on: UACC-62 melanoma
UO-31 renal = tested on: UO-31 renal
DLD-1 colon = tested on: DLD-1 colon
DMS 114 small cell lung = tested on: DMS 114 small cell lung
M19-MEL melanoma = tested on: M19-MEL melanoma
SNB-78 CNS = tested on: SNB-78 CNS

In the case of `CC(C)[Si]1(C(C)C)OCC2OC(n3cnc4c(N)ncnc43)C(N)C2O[Si](C(C)C)(C(C)C)O1` (stereo not given), the TGI (786-0 renal) is reported as 28.3 µM, the TGI (A498 renal) is reported as 45.5 µM and the TGI (A549 NSCLC) is reported as 49.5 µM. For the same compound, the TGI (ACHN renal) was 21.6 µM, the TGI (BT-549 breast) was 14.3 µM and the TGI (CAKI-1 renal) was 35.3 µM. The TGI (CCRF-CEM leukemia) was over 71.6 µM, the TGI (COLO 205 colon) was 23.9 µM and the TGI (DU-145 prostate) was 31.4 µM. It also gave a TGI (EKVX NSCLC) of over 66.9 µM, a TGI (HCC-2998 colon) of 14.5 µM and a TGI (HCT-116 colon) of 16.9 µM. The TGI (HCT-15 colon) was 23.8 µM, the TGI (HL-60(TB) leukemia) was over 28.2 µM and the TGI (HOP-62 NSCLC) was over 49.5 µM. For the same compound, the TGI (HOP-92 NSCLC) was 33 µM, the TGI (HS 578T breast) was 44.5 µM and the TGI (HT29 colon) was 26.9 µM. For the same compound, the TGI (IGROV1 ovarian) was 43.3 µM, the TGI (K-562 leukemia) was 36.9 µM and the TGI (KM12 colon) was 16.6 µM. For the same compound, the TGI (LOX IMVI melanoma) was 21.3 µM, the TGI (M14 melanoma) was 26.3 µM and the TGI (MALME-3M melanoma) was over 100 µM. The TGI (MCF7 breast) was 8.56 µM, the TGI (MDA-MB-231 breast) was 33.1 µM and the TGI (MDA-MB-435) was 30.7 µM. It also gave a TGI (MDA-N) of 24.3 µM, a TGI (MOLT-4 leukemia) of 7.84 µM and a TGI (NCI-H226 lung) of 25.8 µM. For the same compound, the TGI (NCI-H23 lung) was 26.5 µM, the TGI (NCI-H460 lung) was 27.5 µM and the TGI (NCI-H522 lung) was 26.4 µM. The TGI (NCI/ADR-RES ovarian) was 20.7 µM, the TGI (OVCAR-3 ovarian) was 20.6 µM and the TGI (OVCAR-4 ovarian) was over 100 µM. For the same compound, the TGI (OVCAR-5 ovarian) was 67.6 µM, the TGI (OVCAR-8 ovarian) was 25.1 µM and the TGI (PC-3 prostate) was over 43 µM. The TGI (RPMI-8226 leukemia) was 7.72 µM, the TGI (RXF 393 renal) was 27.1 µM and the TGI (SF-268 CNS) was 41.4 µM. The TGI (SF-295 CNS) was 21.5 µM, the TGI (SF-539 CNS) was 24.4 µM and the TGI (SK-MEL-2 melanoma) was 24.6 µM. The TGI (SK-MEL-28 melanoma) was over 72.1 µM, the TGI (SK-MEL-5 melanoma) was 9.01 µM and the TGI (SK-OV-3 ovarian) was over 53.7 µM. It also gave a TGI (SN12C renal) of 27.9 µM, a TGI (SNB-19 CNS) of 97.5 µM and a TGI (SNB-75 CNS) of 25.1 µM. For the same compound, the TGI (SR leukemia) was over 27.1 µM, the TGI (SW-620 colon) was over 45.4 µM and the TGI (T-47D breast) was 30.5 µM. For the same compound, the TGI (TK-10 renal) was 28.9 µM, the TGI (U251 CNS) was 35.8 µM and the TGI (UACC-257 melanoma) was 32.4 µM. It also gave a TGI (UACC-62 melanoma) of 27.4 µM and a TGI (UO-31 renal) of 27.6 µM.

`Cc1cccc(CC(C)(C)C)c1NC(=O)C(=O)C(C(=O)c1ccc2ccccc2c1)C1OC(=O)c2ccccc21` (stereo not given) showed a TGI (786-0 renal) of 21.7 µM, a TGI (A498 renal) of 30.9 µM and a TGI (A549 NSCLC) of 40.9 µM. It also gave a TGI (ACHN renal) of 56.2 µM, a TGI (CAKI-1 renal) of over 100 µM and a TGI (COLO 205 colon) of 92 µM. It also gave a TGI (DLD-1 colon) of 35.1 µM, a TGI (DMS 114 small cell lung) of 56.7 µM and a TGI (EKVX NSCLC) of 82.1 µM. It also gave a TGI (HCC-2998 colon) of 25.2 µM, a TGI (HCT-116 colon) of over 100 µM and a TGI (HCT-15 colon) of 41.4 µM. For the same compound, the TGI (HOP-62 NSCLC) was 43.2 µM, the TGI (HOP-92 NSCLC) was 8.54 µM and the TGI (HT29 colon) was 51.6 µM. For the same compound, the TGI (IGROV1 ovarian) was 46.8 µM, the TGI (KM12 colon) was 30.3 µM and the TGI (LOX IMVI melanoma) was 43.9 µM. The TGI (M14 melanoma) was over 100 µM, the TGI (M19-MEL melanoma) was 64.1 µM and the TGI (MALME-3M melanoma) was 27.4 µM. It also gave a TGI (NCI-H226 lung) of 7.12 µM, a TGI (NCI-H23 lung) of 19.2 µM and a TGI (NCI-H460 lung) of 17 µM. For the same compound, the TGI (NCI-H522 lung) was 26.7 µM, the TGI (OVCAR-3 ovarian) was over 100 µM and the TGI (OVCAR-4 ovarian) was over 100 µM. It also gave a TGI (OVCAR-5 ovarian) of 34.7 µM, a TGI (RPMI-8226 leukemia) of over 100 µM and a TGI (RXF 393 renal) of 14.5 µM. It also gave a TGI (SF-268 CNS) of 30.6 µM, a TGI (SF-295 CNS) of 21.6 µM and a TGI (SF-539 CNS) of 11.8 µM. The TGI (SK-MEL-2 melanoma) was 34.2 µM, the TGI (SK-MEL-28 melanoma) was 18.8 µM and the TGI (SK-MEL-5 melanoma) was 26.7 µM. It also gave a TGI (SK-OV-3 ovarian) of over 100 µM, a TGI (SN12C renal) of 36.9 µM and a TGI (SNB-19 CNS) of 46.9 µM. The TGI (SNB-78 CNS) was over 100 µM, the TGI (SR leukemia) was over 100 µM and the TGI (SW-620 colon) was 38.7 µM. It also gave a TGI (U251 CNS) of 17.8 µM, a TGI (UACC-257 melanoma) of 26.2 µM and a TGI (UACC-62 melanoma) of 21.7 µM. The TGI (UO-31 renal) was 31.1 µM.
